Measurements published in PubChem BioAssay (NCI).
Several values for one entry are separate records, joined by “and”; a condition that tells them apart may be missing. Equal entries are not always repeated.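 Each compound was tested at five concentrations against cells in 96-well plates for 48 hours. Abbreviation: GI50, concentration required for 50% inhibition of growth. TGI: total growth inhibition.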

Legend:
Assay in all cases: NCI anticancer screen, dose series, 48 h
[1] = system: OVCAR-4 ovarian
[2] = system: HL-60(TB) leukemia
[3] = system: MCF7 breast
[4] = system: SNB-19 CNS
[5] = system: IGROV1 ovarian
[6] = system: SF-295 CNS
[7] = system: RXF 393 renal
[8] = system: MDA-MB-231 breast
[9] = system: EKVX NSCLC
[10] = system: HT29 colon

Structure (SMILES)	GI50 [1] [µM]	TGI [1]	GI50 [2]	TGI [2] [µM]	GI50 [3]	TGI [3]	GI50 [4]	TGI [4]	GI50 [5] [µM]	TGI [5]	GI50 [6] [µM]	TGI [6]	GI50 [7]	TGI [7]	GI50 [8] [µM]	TGI [8] [µM]	GI50 [9] [µM]	TGI [9]	GI50 [10] [µM]	TGI [10]
Nc1nc(-c2ccccc2)nc(N)c1N=O	7.39	79.4 µM	19.2 µM	88.9	5.85 µM	27.1 µM	14.4 µM	33 µM	11.8	54 µM	18.1	52.9 µM	2.07 µM	7.07 µM	12.6	28.9	20.1	> 100 µM	2.88	10.3 µM
O=C(Nc1ccccc1)NS(=O)(=O)c1ccc(-n2nc3c(c2-c2ccc(Cl)cc2)Cc2ccccc2-3)cc1	45.2	> 100 µM	13.4 µM	35.6	11.2 µM	28.2 µM	61.5 µM	> 100 µM	28.5	> 100 µM	18.2	78.1 µM	22.2 µM	85.7 µM	14.7	63.3	15.8	78.9 µM	29.8	> 100 µM
CC(C)CCN=C(N)c1ccc(N2CCN(c3ccc(C(N)=NCCC(C)C)cc3)CC2)cc1	3.4	33.1 µM	4.74 µM	26.1	16.2 µM	33.8 µM	6.52 µM	24.2 µM	6.27	40.3 µM	6.68	38.5 µM	7.89 µM	44.9 µM	20.6	52.7	1	10.4 µM	6.51	30.2 µM
O=C(O)c1cccc(N=Nc2c(S(=O)(=O)O)ccc3c2C(=O)c2ccccc2C3=O)c1O		> 100 µM		> 100		> 100 µM		> 100 µM		> 100 µM		> 100 µM		> 100 µM		> 100		> 100 µM		> 100 µM
COc1cc(O)c(C(=O)/C=C/c2ccc(O)cc2)c(O)c1[C@@H]1C[C@H](CCc2ccc(O)cc2)O[C@H](c2ccc(O)cc2)C1	3.35	16.8 µM	2.02 µM	3.91	3.08 µM	8.85 µM	3.58 µM	13.3 µM	2.88	16.5 µM	4.36	17.8 µM	3.1 µM	9.07 µM	2.26	6.32	4.35	15.8 µM	3.66	11.2 µM
NC(=O)c1cc(-c2ccc(F)cc2)cc(-c2ccncc2)c1N	> 25	> 25 µM	> 25 µM	> 25	> 25 µM	> 25 µM	24.3 µM	> 25 µM	> 25	> 25 µM	> 21.7	> 25 µM	> 18.6 µM	> 25 µM	> 25	> 25	> 25	> 25 µM	> 25	> 25 µM
CCn1cc(C(=O)O)c(=O)c2cc3c(cc21)S(=O)(=O)CC3		> 100 µM		> 100		> 100 µM		> 100 µM		> 100 µM		> 100 µM		> 100 µM		> 100		> 100 µM		> 100 µM
COc1cc(OC)c(/C=C/c2cnc3ccccc3n2)c(OC)c1		> 10 µM		> 10		> 10 µM		> 10 µM		> 10 µM		> 10 µM		> 10 µM		> 10		> 10 µM		> 10 µM
CCCCCCCCCCCC1CCCC(C)N1 (stereo not given)	7.18	22.3 µM and 136 µM	1.15 µM		3.24 µM		11.4 µM	25.3 µM and 155 µM	6.13	19.2 µM and 142 µM	13.5	28.3 µM and 154 µM	15.2 µM	35.6 µM and 108 µM	3.99	18	12.2	26.3 µM and 119 µM	2.59	8.78 µM and 65.7 µM
O=C1c2ccccc2C(=O)c2c1ccc(C1C(=O)c3ccccc3C1=O)c2-c1c(C2C(=O)c3ccccc3C2=O)ccc2c1C(=O)c1ccccc1C2=O		> 100 µM		> 100		> 100 µM		> 100 µM		> 100 µM		> 100 µM		> 100 µM		> 100		> 100 µM		> 100 µM
CC[C@@H](C(=O)[C@@H](C)[C@@H](O)[C@H](C)[C@@H]1O[C@@H]([C@@H](CC)C(=O)N(CC)CC)CC[C@@H]1C)C1O[C@]2(C=CC(=O)[C@]3(CC[C@@](C)([C@H]4CC[C@](O)(CC)[C@H](C)O4)O3)O2)[C@H](C)C[C@@H]1C (stereo not given in full)	2.96	15.3 µM	2.16 µM	4.95	2.41 µM	8.11 µM	3.31 µM	> 100 µM	2.31	7.71 µM	2.26	6.51 µM	1.66 µM	4.06 µM	1.69	3.33	2.75	18.6 µM	2.73	15.6 µM
COC(=O)C1=C(C)NC(C)=C(C(=O)OC)C1/C=C(Cl)/C=C/c1ccccc1	30.4	> 100 µM	17.8 µM	41.2	24.4 µM	78.5 µM	37.7 µM	> 100 µM	18.2	43.8 µM	17.3	38.6 µM	18.4 µM	46.6 µM	17.9	36.7	23.5	96.4 µM	18.9	44.9 µM
COc1ccc(/C(C#N)=C/c2ccc(OC)c(OC)c2)cc1		> 100 µM		> 100		> 100 µM		> 100 µM		> 100 µM		> 100 µM		> 100 µM		> 100		> 100 µM		> 100 µM
O=C(NCc1ccc(Cn2c(=O)sn(-c3ccccc3)c2=O)cc1)OCc1ccc2c(Br)cc(Br)c(O)c2n1	0.695	1.96 µM	0.659 µM	> 20.3	0.399 µM	1.96 µM	1.55 µM	2.9 µM	0.428	1.58 µM	1.6	3.06 µM	0.546 µM	1.83 µM	1.18	2.53	1.5	3.12 µM	0.539	1.89 µM
CC1(C)[C@@H](O[C@@H]2OC[C@@H](O[C@@H]3O[C@H](CO)[C@@H](O)[C@H](O)[C@H]3O[C@@H]3OC[C@@H](O)[C@H](O)[C@H]3O)[C@H](O)[C@H]2O[C@@H]2O[C@H](CO)[C@@H](O)[C@H](O)[C@H]2O)CC[C@]2(C)[C@H]3CC[C@]45OC[C@@]6(CC[C@](C)(C=O)C[C@H]64)[C@H](O)C[C@@]5(C)[C@]3(C)CC[C@@H]12	0.794	1.66 µM	1.04 µM	2.21	0.972 µM	2.43 µM	0.872 µM	1.77 µM	0.872	1.84 µM	0.892	1.64 µM	0.892 µM	2.07 µM	0.915	1.9	0.945	1.96 µM	1.01	2.06 µM
O=C(NP(=O)(N1CC1)N1CC1)c1cc(I)ccc1I		> 100 µM		> 96.4		> 100 µM		> 100 µM		> 100 µM		> 100 µM		> 87.8 µM		> 100		> 100 µM		> 100 µM
CCCCS(=O)(=O)CCC(N)C(=O)O (stereo not given)		> 100 µM		> 100		> 100 µM		> 100 µM		> 100 µM		> 100 µM		> 100 µM		> 100		> 100 µM		> 100 µM
Cc1cc(Cl)ccc1NC(=O)c1cc2ccccc2cc1O	1.94	> 100 µM	0.435 µM	3.47	1.57 µM	> 100 µM	0.736 µM	> 100 µM	0.993	> 100 µM	2.56	> 28.6 µM	1.18 µM	8.6 µM	1.01	25.5	2.61	> 100 µM	12.3	> 100 µM
CC(=O)O[C@]1(C(C)=O)CC[C@H]2[C@@H]3C=C(C)C4=CC(=O)CC[C@]4(C)[C@H]3CC[C@@]21C	> 91.5	> 100 µM	12.8 µM	61.6	> 100 µM	> 100 µM	> 82.9 µM	> 100 µM	> 100	> 100 µM	> 83.3	> 100 µM	57.5 µM	> 100 µM	> 100	> 100	21	> 100 µM	> 100	> 100 µM
COc1ccc2c(c1)n([O-])c1ccccc1[n+]2=O		77.8 µM	45.2 µM and 4.54 µM	> 100	20.3 µM and 8.97 µM	> 100 µM and 36 µM	51.6 µM and 20 µM	> 100 µM and 89.6 µM		19.1 µM		> 100 µM and 48.6 µM	25 µM and 10.3 µM	81.2 µM and 34.8 µM		> 100		> 100 µM and 55.1 µM		> 100 µM
COc1cc(C2=C(C#Cc3ccccc3)COC2=O)cc(OC)c1OC	34.2	> 100 µM	0.246 µM	3.36	0.193 µM	> 100 µM	7.27 µM	> 76 µM		> 100 µM	0.687		1.35 µM	> 100 µM	0.492	2.95	18.2	38.1 µM	3.02	> 100 µM
CC1OC(OC2C(O[C@H]3CC[C@@]4(C)C(=CC[C@H]5[C@@H]6C[C@@H]7O[C@]8(CC[C@H](C)CN8)[C@@H](C)[C@@H]7[C@@]6(C)CC[C@@H]54)C3)OC(CO)C(O)C2OC2OC(CO)C(O)C(O)C2O)C(O)C(O)C1O (stereo not given in full)		37 µM		32.6		32.9 µM		35.6 µM		39.5 µM		34.1 µM		31.5 µM		38.8		32.3 µM		31.6 µM
CSc1ccc(NC(=S)NN(C)C)cc1		> 10 µM		> 10		> 10 µM		> 10 µM		> 10 µM		> 10 µM		> 10 µM		> 10		> 10 µM		> 10 µM
Cc1occc1C(=S)Nc1ccc(Cl)c(C(=O)OC(C)C2CC2)c1 (stereo not given)		40.5 µM		54.1		57.3 µM		39 µM		35.2 µM		39 µM		39.4 µM		45.7		54.9 µM		49 µM
